Assay in all cases: inhibition of tumour cell growth, NCI panel, 48 h
In test [1] the test system is TK-10 renal.
Test [2] concerns ACHN renal.
Test [3] deals with NCI-H23 lung.
Test [4] deals with PC-3 prostate.
The test system of test [5] is UACC-257 melanoma.
The subject of test [6] is A549 NSCLC.
The test system of test [7] is CCRF-CEM leukemia.
Test [8] relates to SF-295 CNS.
The test system of test [9] is COLO 205 colon.
Test [10] has as its system HS 578T breast.

Each structure is given as a SMILES string.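 Method: 48-hour compound exposure of cells in 96-well plates, five concentrations, linear interpolation of endpoints. GI50 = concentration required for 50% inhibition of growth. TGI: total growth inhibition.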

Regarding `CN(C)CCCC1(c2ccc(F)cc2)OCc2cc(-c3ccc4cc[nH]c4c3)ccc21` (stereo not given), the GI50 in test [1] was 2.03 µM; in [2] it was 2.12 µM; in test [3], 1.97 µM; in test [4], 2.17 µM; in test [5], 1.96 µM; in [6] it was 2.11 µM. Further, the GI50 in [7] is 2.65 µM; in [8], 1.79 µM; in test [9] it was 2.11 µM; in [10], 1.8 µM. The TGI in test [1] was determined as 4.09 µM; in test [2] it was 4.82 µM; in [3] it was 4.11 µM; in [4], 5.36 µM; in [5], 3.91 µM; in test [6], 4.57 µM. For the same compound, the TGI in [7] was 7.12 µM; in [8], 3.31 µM; in test [9], 4.68 µM; in test [10] it was 4.27 µM.

On to `C[C@]12CC[C@H]3[C@@H](C[C@@H]4SC(Nc5cccc(F)c5)=N[C@@]45CC(=O)CC[C@]35C)[C@@H]1CCC2=O`, for which the GI50 was 1.97 µM in test [1]; 1.78 µM in [2]; 2.27 µM in test [3]; 1.88 µM in test [4]; 5.47 µM in test [5]; 2.58 µM in [6]. In addition, the GI50 in [7] was 1.9 µM; in test [8], 1.19 µM; in [9], 2.16 µM; in [10], 3.14 µM. The TGI in test [1] is 4.15 µM; in test [2], 3.24 µM; in test [3] it was 9.08 µM; in test [4], 3.87 µM; in test [5], 64.5 µM; in test [6], 7.5 µM. Moreover, the TGI in test [7] was greater than 100 µM; in test [8] it was 2.97 µM; in test [9] it was 4.81 µM; in test [10], greater than 100 µM.

Take `O=C(Oc1ccc([N+](=O)[O-])cc1)N1CCC(C(O)(c2ccc3c(c2)OCO3)c2ccc3c(c2)OCO3)CC1`: the GI50 in test [1], in [2], in [3], in test [4], in test [5] and in test [6] was greater than 100 µM each time. Moreover, the GI50 is greater than 100 µM in test [7], greater than 100 µM in test [8], greater than 100 µM in [9] and greater than 80.4 µM in test [10]. The TGI in test [1], in test [2], in [3], in test [4], in test [5] and in [6] was greater than 100 µM each time. The TGI in [7], in test [8], in [9] and in test [10] was greater than 100 µM each time.

Take `O=[N+]([O-])c1ccc(N(CCO)CCO)c2c1no[n+]2[O-]`: the GI50 in [1] is 2.2 µM; in [2], 0.768 µM; in test [3], 1.23 µM; in [4], 1.57 µM; in test [5], 1.89 µM; in [6], 1.83 µM. Besides, the GI50 is 0.704 µM in test [7], 0.803 µM in [8], 0.852 µM in test [9] and 0.705 µM in test [10]. The TGI was 8.22 µM in [1]; 5.12 µM in test [2]; 4.2 µM in test [3]; 15.9 µM in [4]; 6.54 µM in test [5]; 8.92 µM in test [6]. Also, the TGI in [7] is 4.71 µM; in test [8], 3.38 µM; in test [9], 2.22 µM; in test [10] it was 4.29 µM.

With `O=S(=O)(Nc1ccc(Cl)c(C(F)(F)F)c1)c1ccc(-c2cnc(C3CC3)o2)cc1`, the GI50 in test [1] was 1.8 µM; in [2], 0.789 µM; in test [3] it was 1.37 µM; in [4] it was 0.713 µM; in test [5], 1.29 µM; in [6], 0.577 µM. The GI50 was 0.285 µM in [7], 0.131 µM in test [8], 0.419 µM in test [9] and 0.334 µM in test [10]. For the same compound, the TGI in test [1] is 9.58 µM; in test [2], 6.88 µM; in test [3] it was 6.37 µM; in test [4], 6.59 µM; in [5], 7.93 µM; in [6], greater than 35.6 µM. Further, the TGI in test [7] is greater than 25.1 µM; in [8] it was 2.12 µM; in test [9], 2.33 µM; in [10] it was 3.48 µM.

On to `Cc1cc(NC(=O)CCc2ccc(N3C(N)=NC(N)=NC3(C)C)cc2)ccc1S(=O)(=O)F`, for which the GI50 in [1] was 4.94 µM; in test [2] it was 26.2 µM; in test [3] it was 1.76 µM; in test [4] it was 0.368 µM; in test [5], 15.1 µM; in [6], 0.151 µM. In addition, the GI50 is 0.243 µM in test [7], 2.61 µM in test [8], 0.358 µM in test [9] and 28.3 µM in [10]. Further, the TGI in test [1], in test [2], in test [3], in test [4], in test [5] and in test [6] was greater than 100 µM each time. Further, the TGI in [7], in [8], in [9] and in test [10] was greater than 100 µM each time.

With `O=c1cccc(C#CCCCCOC2CCCO2)o1` (stereo not given), the GI50 in test [1] was 13.4 µM; in test [2] it was 27.5 µM; in [3], 5 µM; in test [4] it was 6.73 µM; in [5], 9.49 µM; in test [6] it was 9.16 µM. Moreover, the GI50 in [7] is 7.14 µM; in test [8], 18.4 µM; in test [9], 16.1 µM; in test [10] it was 7.46 µM. Moreover, the TGI was 35.6 µM in [1]; 60.5 µM in test [2]; 14.9 µM in [3]; greater than 54.6 µM in test [4]; greater than 20.2 µM in test [5]; greater than 48.8 µM in [6]. Besides, the TGI in test [7] is greater than 79.9 µM; in test [8], greater than 41.4 µM; in [9], greater than 31.1 µM; in [10], 29.2 µM.

Turning to `C=CCSc1n[nH]c(-c2cccs2)n1`, the GI50 in [1], in [2], in test [3], in test [4], in test [5] and in [6] was greater than 100 µM throughout. In addition, the GI50 in test [7], in test [8], in test [9] and in [10] was greater than 100 µM throughout. Moreover, the TGI in [1], in [2], in test [3], in test [4], in test [5] and in test [6] was greater than 100 µM in each case. The TGI in test [7], in test [8], in test [9] and in test [10] was greater than 100 µM throughout.

Turning to `C=C1CC2(OC1=O)c1ccccc1CCc1ccccc12`, the TGI in test [1] is 7.09 µM; in test [2], 3.33 µM; in test [3], 23 µM; in test [4], 27.4 µM; in test [5] it was 7.9 µM; in [6], 21.8 µM. In addition, the TGI in [7] was 2.49 µM; in test [8], 29.8 µM; in test [9] it was 3.57 µM; in test [10], 5.03 µM.

Consider `O=C1OC(c2ccc([N+](=O)[O-])cc2)=N/C1=C\c1ccc(O)cc1`, for which the TGI in test [1], in test [2], in test [3], in test [4], in test [5] and in test [6] was greater than 100 µM throughout. The TGI in [7], in test [8], in test [9] and in [10] was greater than 100 µM in each case.

Take `CCC(=S)N(C)O`: the TGI in test [1] is greater than 95.3 µM; in [2], greater than 100 µM; in test [3], greater than 100 µM; in [4], greater than 100 µM; in test [5] it was greater than 100 µM; in test [6] it was greater than 100 µM. The TGI in test [7] was 12.3 µM; in test [8] it was greater than 100 µM; in [9], greater than 79 µM; in test [10], greater than 100 µM.

With `C[C@]12CC[C@@H]3c4ccc(O)cc4CC[C@H]3[C@@H]1CC[C@@H]2NS(=O)(=O)c1cccc(Br)c1`, the GI50 in [1] is 3.43 µM; in test [2], 2.91 µM; in test [3], 3.89 µM; in test [4] it was 2.83 µM; in test [5] it was 5.1 µM; in [6], 3.11 µM. Also, the GI50 in test [7] was 3.06 µM; in test [8], 3.19 µM; in test [9], 1.89 µM; in test [10], 4.04 µM. In addition, the TGI came out at 12.1 µM in test [1]; 8.61 µM in [2]; 17 µM in test [3]; 12.2 µM in test [4]; 20 µM in test [5]; 13.1 µM in test [6]. Further, the TGI in test [7] is 20.3 µM; in [8] it was 11.7 µM; in test [9], 3.38 µM; in test [10], 24.8 µM.

Take `O=C(O)[C@@H]1C[C@@H](O)CN1`: the TGI in test [1], in test [2], in test [3], in test [4], in test [5] and in test [6] was greater than 100 µM each time. In addition, the TGI in test [7], in test [8], in test [9] and in [10] was greater than 100 µM in each case.

For the origin of these results see PubChem BioAssay (NCI).
